Counter-ions that a name gives are not always drawn.
Columns and labels:
HCN2 = molecular target: T1, HCN2 (Homo sapiens, UniProt Q9UL51); assay: HCN2 assay using PatchXpress 7000A (PX protocol, Example 25); assay type: cell-based; details: room temperature
T1 sequence (Q9UL51 1-889): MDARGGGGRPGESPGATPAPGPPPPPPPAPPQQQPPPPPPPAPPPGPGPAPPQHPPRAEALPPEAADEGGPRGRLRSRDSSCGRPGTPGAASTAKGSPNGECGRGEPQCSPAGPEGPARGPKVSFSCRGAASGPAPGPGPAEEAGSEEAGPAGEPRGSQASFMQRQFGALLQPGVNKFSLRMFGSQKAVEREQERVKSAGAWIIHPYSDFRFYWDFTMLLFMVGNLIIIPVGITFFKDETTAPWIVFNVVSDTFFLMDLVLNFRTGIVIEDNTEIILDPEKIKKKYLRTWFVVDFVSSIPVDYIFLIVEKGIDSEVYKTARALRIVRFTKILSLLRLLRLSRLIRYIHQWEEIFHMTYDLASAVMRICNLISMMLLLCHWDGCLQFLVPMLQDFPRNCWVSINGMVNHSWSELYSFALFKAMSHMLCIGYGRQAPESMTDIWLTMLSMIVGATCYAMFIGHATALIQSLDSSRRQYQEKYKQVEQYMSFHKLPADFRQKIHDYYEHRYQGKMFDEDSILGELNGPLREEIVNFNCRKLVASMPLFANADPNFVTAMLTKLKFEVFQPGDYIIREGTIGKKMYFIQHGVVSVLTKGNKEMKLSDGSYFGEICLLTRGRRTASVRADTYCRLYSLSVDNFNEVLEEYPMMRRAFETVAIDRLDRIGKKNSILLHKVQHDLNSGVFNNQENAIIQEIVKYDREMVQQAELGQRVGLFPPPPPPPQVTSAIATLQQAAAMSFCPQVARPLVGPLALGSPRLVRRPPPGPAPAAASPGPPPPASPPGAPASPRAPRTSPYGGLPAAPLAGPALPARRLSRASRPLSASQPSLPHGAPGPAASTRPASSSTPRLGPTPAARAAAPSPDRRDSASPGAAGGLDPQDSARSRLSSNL
Description: (§1) Example 25: Assay for HCN1 HCN2 and HCN4 Using PatchXpress 7000A
(§2) Solutions for recording HCN currents were:
The membrane voltage was then stepped back to −30 mV for a further 8 seconds.
(§3) The peak inward current measured at the end of the pulse to −110 mV (HCN1 and HCN2) or −130 mV (HCN4) was measured and any leak current subtracted to calculate the HCN current. The HCN current amplitude was measured after each control or compound addition and normalized to the control amplitude (Control A).
(§4) All experiments were performed at room temperature (approximately 22° C.).
(§5) Each test compound concentration was applied to the cell for seven (7) minutes, at which point the next cumulative concentration was applied.

HCN4 = molecular target: T2, HCN4 (Homo sapiens, UniProt Q9Y3Q4); assay: HCN4 assay using PatchXpress 7000A (PX protocol, Example 25); assay type: cell-based; details: room temperature
T2 sequence (Q9Y3Q4 1-1203): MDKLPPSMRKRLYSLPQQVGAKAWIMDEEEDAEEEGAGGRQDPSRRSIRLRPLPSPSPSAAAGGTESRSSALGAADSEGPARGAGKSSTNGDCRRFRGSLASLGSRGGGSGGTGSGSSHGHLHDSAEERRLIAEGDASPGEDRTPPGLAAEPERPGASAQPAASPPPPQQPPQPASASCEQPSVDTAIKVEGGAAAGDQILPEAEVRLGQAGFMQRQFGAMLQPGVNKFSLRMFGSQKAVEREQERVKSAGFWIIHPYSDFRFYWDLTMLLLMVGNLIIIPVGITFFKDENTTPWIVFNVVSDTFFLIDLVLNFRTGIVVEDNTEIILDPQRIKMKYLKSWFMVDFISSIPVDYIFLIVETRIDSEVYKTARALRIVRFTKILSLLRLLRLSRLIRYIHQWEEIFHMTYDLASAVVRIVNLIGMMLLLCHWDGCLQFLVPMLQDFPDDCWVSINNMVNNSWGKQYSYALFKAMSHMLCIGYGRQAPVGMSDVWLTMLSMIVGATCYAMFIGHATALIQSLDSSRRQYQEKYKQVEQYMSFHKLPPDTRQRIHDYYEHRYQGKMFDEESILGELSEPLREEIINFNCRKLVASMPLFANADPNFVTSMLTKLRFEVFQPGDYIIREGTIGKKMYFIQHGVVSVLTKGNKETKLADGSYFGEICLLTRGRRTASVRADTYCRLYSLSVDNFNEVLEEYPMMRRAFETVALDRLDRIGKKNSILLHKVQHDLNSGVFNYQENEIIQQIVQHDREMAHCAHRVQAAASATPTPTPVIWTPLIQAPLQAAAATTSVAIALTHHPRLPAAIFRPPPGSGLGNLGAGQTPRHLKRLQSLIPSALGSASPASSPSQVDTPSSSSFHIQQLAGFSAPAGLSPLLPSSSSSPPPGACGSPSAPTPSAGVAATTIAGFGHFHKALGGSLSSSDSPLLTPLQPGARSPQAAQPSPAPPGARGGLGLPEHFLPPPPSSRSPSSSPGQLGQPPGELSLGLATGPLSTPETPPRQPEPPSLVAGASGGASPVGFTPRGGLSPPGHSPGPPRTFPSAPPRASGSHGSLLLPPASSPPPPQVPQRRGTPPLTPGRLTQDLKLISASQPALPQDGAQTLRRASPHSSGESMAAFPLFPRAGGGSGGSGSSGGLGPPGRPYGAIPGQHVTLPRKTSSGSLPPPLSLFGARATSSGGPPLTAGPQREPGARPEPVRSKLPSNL
Description: as §1, §2, §3, §4, §5

IC50 (HCN2) [µM] | IC50 (HCN4) [µM] | Structure (SMILES)
4.5 |  | CC(c1ccccn1)[C@H](N)c1ncccc1-c1noc2ccccc12 (single isomer, unassigned) [Example 12, hydrochloride]
9.6 |  | CC(c1ccccn1)[C@H](N)c1ncccc1-c1noc2ccccc12 (single isomer, unassigned) [Example 13, hydrochloride]
16.8 |  | Cn1nc(-c2ccccc2[C@@H](N)Cc2ccccn2)c2cccnc21 [Example 1, (S)-1-[2-(1-Methyl-1H-pyrazolo[3,4-b]pyridine-3-yl)phenyl]-2-(pyridin-2-yl)ethan-1-amine hydrochloride]
10.2 |  | N[C@@H](Cc1ccccn1)c1ccccc1-c1noc2ncccc12 [Example 2, (S)-1-[2-(Isoxazolo[5,4-b]pyridine-3-yl)phenyl]-2-(pyridin-2-yl)ethan-1-amine]
5.7 | > 30 | Cn1nc(-c2cccnc2[C@@H](N)Cc2ccccn2)c2ccccc21 [Example 3, (S)-1-[3-(1-Methyl-1H-indazol-3-yl)pyridine-2-yl]-2-(pyridin-2-yl)ethan-1-amine hydrochloride]
19 |  | N[C@@H](Cc1ccccn1)c1cccnc1-c1noc2ccccc12 [Example 5, (S)-1-[2-(Benzoy[d]isoxazol-3-yl)pyridine-3-yl}-2-(pyridine-2-yl)ethan-1-amine hydrochloride]
2.2 | > 30 | N[C@@H](Cc1ccccn1)c1ncccc1-c1noc2ccccc12 [Example 6, (S)-1-[3-(Benzoy[d]isoxazol-3-yl)pyridine-2-yl}-2-(pyridine-2-yl)ethan-1-amine hydrochloride]
13.8 |  | N[C@@H](Cc1ccccn1)c1ccncc1-c1noc2ccccc12 [Example 7, (S)-1-[3-(Benzoy[d]isoxazol-3-yl)pyridine-4-yl}-2-(pyridine-2-yl)ethan-1-amine hydrochloride]
7.9 | > 30 | Cn1nc(-c2ccccc2[C@@H](N)Cc2ccccn2)c2ccncc21 [Example 8, (S)-1-[2-(1-Methyl-1H-pyrazolo[3,4-c]pyridine-3-yl)phenyl]-2-(pyridine-2-yl)ethan-1-amine hydrochloride]
3.2 | > 30 | Cc1ccc(-c2noc3ccccc23)c([C@@H](N)Cc2ccccn2)n1 [Example 9, (S)-1-[3-(Benzoy[d]isoxazol-3-yl)-6-methylpyridine-2-yl]-2-(pyridine-2-yl)ethan-1-amine hydrochloride]
1.9 | 16.7 | N#Cc1cccc(C[C@H](N)c2ncccc2-c2noc3ccccc23)n1 [Example 10, (S)-6-{2-Amino-2-[3-(benzoy[d]isoxazol-3-yl)pyridine-2-yl]ethyl}pyridine-2-carbonitrile hydrochloride]
5.1 | 22.9 | Cc1cccc(C[C@H](N)c2ncccc2-c2noc3ccccc23)n1 [Example 11, (S)-1-[3-(Benzoy[d]isoxazol-3-yl)pyridine-2-yl]-2-(6-methylpyridine-2-yl)ethan-1-amine hydrochloride]
12.3 |  | N[C@@H](Cc1ccccn1)c1ccccc1-c1noc2cnccc12 [Example 14, (S)-1-[2-(Isoxazolo[5,4-c]pyridine-3-yl)phenyl]-2-(pyridin-2-yl)ethan-1-amine]
7.7 | > 30 | Cc1cccc(C[C@H](N)c2ccccc2-c2nn(C)c3cnccc23)n1 [Example 15, (S)-1-[2-(1-Methyl-1H-pyrazolo[3,4-c]pyridine-3-yl)phenyl]-2-(6-methylpyridine-2-yl)ethan-1-amine hydrochloride]
6.8 | > 30 | Cn1nc(-c2ccccc2[C@@H](N)Cc2cccc(C#N)n2)c2ccncc21 [Example 16, (S)-6-{2-Amino-2-[2-(1-methyl-1H-pyrazolo[3,4-c]pyridine-3-yl)phenyl]ethyl}pyridine-2-carbonitrile]
6.4 | > 30 | NC(=O)c1cccc(C[C@H](N)c2ncccc2-c2noc3ccccc23)n1 [Example 17, (S)-6-{2-Amino-2-[3-(benzoy[d]isoxazol-3-yl)pyridine-2-yl]ethyl}pyridine-2-carboxamide]
11.2 | > 30 | CN(C)C(=O)c1cccc(C[C@H](N)c2ncccc2-c2noc3ccccc23)n1 [Example 18, (S)-6-{2-Amino-2-[3-(benzoy[d]isoxazol-3-yl)pyridine-2-yl]ethyl}-N,N-dimethylpyridine-2-carboxamide]
4 | > 30 | N[C@@H](Cc1cccc(OCCO)n1)c1ncccc1-c1noc2ccccc12 [Example 19, (S)-2-[(6-{2-Amino-2-[3-(benzoy[d]isoxazol-3-yl)pyridine-2-yl]ethyl}pyridine-2-yl)oxy]ethano-1-ol]
9 | > 30 | N[C@@H](Cc1ncccn1)c1ncccc1-c1noc2ccccc12 [Example 20, (S)-1-[3-(Benzo[d]isoxazol-3-yl)pyridine-2-yl]-2-(pyrimidin-2-yl)ethan-1-amine]
8.9 | > 30 | CN(C)C(=O)CCc1cccc(C[C@H](N)c2ncccc2-c2noc3ccccc23)n1 [Example 21, (S)-3-(6-{2-Amino-2-[3-(benzo[d]isoxazol-3-yl)pyridine-2-ylethyl}priding-2-yl)-N,N-dimethylpropanamide hydrochloride]
1.6 | 10.3 | Cc1ccc(Br)nc1C[C@H](N)c1ncccc1-c1noc2ccccc12 [Example 22, (S)-1-[3-(Benzo[d]isoxazol-3-yl)pyridine-2-yl]-2-(6-bromo-3-methylpyridine-2-yl)ethan-1-amine hydrochloride]
1.7 | 9.5 | N[C@@H](Cc1ncccc1F)c1ncccc1-c1noc2ccccc12 [Example 23, (S)-1-[3-(Benzo[d]isoxazol-3-yl)pyridine-2-yl]-2-(3-fluoropyridine-2-yl)ethan-1-amine hydrochloride]
4.2 |  | Cc1ccc(F)c(C[C@H](N)c2ncccc2-c2noc3ccccc23)n1 [Example 24, (S)-1-[3-(Benzo[d]isoxazol-3-yl)pyridine-2-yl]-2-(3-fluoro-6-methylpyridine-2-yl)ethan-1-amine hydrochloride]

Reference: US20240174663A1, “PYRIMIDINE OR PYRIDINE DERIVATIVES USEFUL AS HCN2 MODULATORS” (King's College London, priority 2021, published 2024)
